ChEMBL document CHEMBL1201862, “PubChem BioAssay data set” (2004)
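Step 1: Grow cells in 96-well plates. Step 2: Expose to compound for 48 hours at 5 concentrations. Step 3: Interpolate endpoints linearly; if unreached, use highest concentration. At the GI50, growth is halved.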 The source made the active and inactive calls. No stated cut-off is given here; in the data, active = GI50 up to about 1.1 µM and inactive = higher.

Assays:
Assay in all cases: NCI-60 cell line screen, 48 h
UO-31 = test system: UO-31
ACHN = test system: ACHN
HOP-62 = test system: HOP-62
EKVX = test system: EKVX
IGROV-1 = test system: IGROV-1
PC-3 = test system: PC-3
A549 = test system: A549
OVCAR-4 = test system: OVCAR-4
NCI/ADR-RES = test system: NCI/ADR-RES
RPMI-8226 = test system: RPMI-8226
HCT-116 = test system: HCT-116
HT-29 = test system: HT-29
NCI-H460 = test system: NCI-H460
SK-MEL-5 = test system: SK-MEL-5
786-0 = test system: 786-0
MDA-MB-231 = test system: MDA-MB-231
KM12 = test system: KM12
K562 = test system: K562
COLO 205 = test system: COLO 205
SK-OV-3 = test system: SK-OV-3

Measured: GI50

O=C(NCCCCCCCN1CCCCCCC1)C(C1CCCCC1)C1CCCCC1
inactive: UO-31 9.53 µM | ACHN 12 µM | HOP-62 3.97 µM | EKVX 4.4 µM | IGROV-1 12.3 µM | PC-3 8.57 µM | A549 11.7 µM | OVCAR-4 9.38 µM | NCI/ADR-RES 9.98 µM | RPMI-8226 2.56 µM | HCT-116 7.66 µM | HT-29 2.82 µM | NCI-H460 9.1 µM | SK-MEL-5 2.42 µM | 786-0 4.74 µM | MDA-MB-231 8.51 µM | KM12 6.75 µM | K562 2.77 µM | COLO 205 2.81 µM | SK-OV-3 11.3 µM

CC(C)(C)C1=CC(=C(c2ccc(-c3c4nc(c(-c5ccc(C(=C6C=C(C(C)(C)C)C(=O)C(C(C)(C)C)=C6)c6cc(C(C)(C)C)c(O)c(C(C)(C)C)c6)cc5)c5ccc([nH]5)c(-c5ccc(C(=C6C=C(C(C)(C)C)C(=O)C(C(C)(C)C)=C6)c6cc(C(C)(C)C)c(O)c(C(C)(C)C)c6)cc5)c5nc(c(-c6ccc(C(=C7C=C(C(C)(C)C)C(=O)C(C(C)(C)C)=C7)c7cc(C(C)(C)C)c(O)c(C(C)(C)C)c7)cc6)c6ccc3[nH]6)C=C5)C=C4)cc2)c2cc(C(C)(C)C)c(O)c(C(C)(C)C)c2)C=C(C(C)(C)C)C1=O
inactive: UO-31 > 100 µM | ACHN > 100 µM | HOP-62 > 100 µM | EKVX > 100 µM | IGROV-1 > 100 µM | PC-3 > 100 µM | A549 > 100 µM | OVCAR-4 > 100 µM | NCI/ADR-RES > 100 µM | RPMI-8226 > 100 µM | HCT-116 > 100 µM | HT-29 > 100 µM | NCI-H460 > 100 µM | SK-MEL-5 > 100 µM | 786-0 > 77.8 µM | MDA-MB-231 > 100 µM | KM12 > 100 µM | K562 > 100 µM | COLO 205 > 100 µM | SK-OV-3 > 100 µM

O=C1C[C@H](CCC(=O)OCc2ccccc2)NC(=O)C[C@H](CCC(=O)OCc2ccccc2)NC(=O)C[C@H](CCC(=O)OCc2ccccc2)N1
inactive: UO-31 > 100 µM | ACHN 17.1 µM | HOP-62 16.2 µM | EKVX > 100 µM | IGROV-1 50.2 µM | PC-3 > 100 µM | A549 > 100 µM | OVCAR-4 > 100 µM | NCI/ADR-RES 82.4 µM | RPMI-8226 > 100 µM | HCT-116 26.2 µM | HT-29 > 100 µM | NCI-H460 > 100 µM | SK-MEL-5 > 100 µM | 786-0 8.15 µM | MDA-MB-231 14.2 µM | KM12 > 100 µM | K562 > 100 µM | COLO 205 > 100 µM | SK-OV-3 5.92 µM

O=C(NC(Cc1c[nH]c2ccccc12)C(=O)Nc1ccc(Br)cc1)OCc1ccccc1 (stereo not given)
inactive: UO-31 9.1 µM | ACHN 10.2 µM | HOP-62 11 µM | EKVX 6.59 µM | IGROV-1 9.12 µM | PC-3 10.4 µM | A549 9.16 µM | OVCAR-4 9.14 µM | NCI/ADR-RES 12.1 µM | RPMI-8226 6.38 µM | HCT-116 9.82 µM | HT-29 6.19 µM | NCI-H460 6.22 µM | SK-MEL-5 10.7 µM | 786-0 10.8 µM | MDA-MB-231 10.2 µM | KM12 6.31 µM | K562 6.82 µM | COLO 205 12.1 µM | SK-OV-3 14.1 µM

O=S(=O)(O)c1cc(O)c(/N=N\C2S(=O)(=O)OCCOS2(=O)=O)c2ccccc12
inactive: UO-31 > 100 µM | ACHN 46 µM | HOP-62 43.6 µM | EKVX > 100 µM | IGROV-1 37.9 µM | PC-3 > 100 µM | A549 > 100 µM | OVCAR-4 > 100 µM | NCI/ADR-RES > 100 µM | RPMI-8226 > 100 µM | HCT-116 > 100 µM | HT-29 > 100 µM | NCI-H460 23.4 µM | SK-MEL-5 > 100 µM | 786-0 61.9 µM | MDA-MB-231 > 100 µM | KM12 > 100 µM | K562 > 100 µM | COLO 205 > 100 µM | SK-OV-3 > 100 µM
